Legend:
[1] = xn = mol fraction of the nth substance listed; settings: 101 kPa, Liquid; for viscosity: Capillary tube (Ostwald / Ubbelohde) method; for molar volume: Pycnometric method
[2] = 101 kPa, Liquid; for viscosity: Capillary tube (Ostwald / Ubbelohde) method; for molar volume: Pycnometric method

CCCCCCO [hexan-1-ol] + Cc1cccc(C)c1
[1], x1 = 1
Settings	molar volume [m3/mol]	viscosity [mPa·s]
303.15 K	0.0001259	3.829
313.15 K	0.000127	2.879
323.15 K	0.0001281	2.215

CCCCCCO [hexan-1-ol]
[2]
Settings	molar volume [m3/mol]	viscosity [mPa·s]
303.15 K	0.0001259	3.829
313.15 K	0.000127	2.879
323.15 K	0.0001281	2.215

Cc1cccc(C)c1 [1,3-dimethylbenzene] + CCCCCCO
[1]
Settings	molar volume, 303.15 K [m3/mol]	molar volume, 313.15 K [m3/mol]	molar volume, 323.15 K [m3/mol]	viscosity, 303.15 K [mPa·s]	viscosity, 313.15 K [mPa·s]	viscosity, 323.15 K [mPa·s]
x2 = 0	0.0001241	0.0001254	0.0001266	0.5501	0.4944	0.4472
x2 = 0.1	0.0001243	0.0001256	0.0001269	0.5979	0.5309	0.4743
x2 = 0.2	0.0001246	0.0001258	0.0001272	0.6825	0.5975	0.5277
x2 = 0.3	0.0001248	0.000126	0.0001273	0.7998	0.6894	0.6009
x2 = 0.4	0.0001249	0.0001262	0.0001275	0.9537	0.8068	0.6925
x2 = 0.5	0.0001251	0.0001263	0.0001276	1.161	0.9645	0.8141
x2 = 0.6	0.0001253	0.0001265	0.0001277	1.442	1.173	0.97
x2 = 0.7	0.0001254	0.0001266	0.0001278	1.833	1.457	1.179
x2 = 0.8	0.0001255	0.0001267	0.0001279	2.357	1.833	1.448
x2 = 0.9	0.0001257	0.0001269	0.000128	3.032	2.309	1.797

Cc1cccc(C)c1 [1,3-dimethylbenzene]
[2]
Settings	molar volume [m3/mol]	viscosity [mPa·s]
303.15 K	0.0001241	0.5501
313.15 K	0.0001254	0.4944
323.15 K	0.0001266	0.4472
